The target in one test is TAMRA-TRTK. Nature of the test: fluorescence polarisation.
In test [1] the target is T1, rat S100B (Rattus norvegicus, UniProt P04631).
T1 sequence (P04631 1-92): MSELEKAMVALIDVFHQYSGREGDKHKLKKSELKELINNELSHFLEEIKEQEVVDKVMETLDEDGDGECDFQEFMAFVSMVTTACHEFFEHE
Description: Fluorescence polarization competition assay. Type of test: binding. On the technique in general: Fluorescence polarisation rises when a labelled molecule tumbles more slowly, as on binding a larger partner.

The target of a further test is T2, Ca2+-bound S100B (Rattus norvegicus, UniProt P04631).
T2 sequence (P04631 1-92): T1 sequence (P04631 1-92)
Nature of the test: NMR 1H-15N HSQC chemical shift perturbation secondary screen. It counts as binding. As to conditions: for NMR (confirmed to bind S100B via NMR HSQC experiments): 10-fold excess compound versus S100B (100 μM; 10 mM Ca2+).

The next test deals with T3, S100B (Rattus norvegicus, UniProt P04631).
T3 sequence (P04631 1-92): T1 sequence (P04631 1-92)
Description: Binding monitored by change in the compound's intrinsic fluorescence.

Test [2] has as its target T1, rat S100B. Nature of the test: Fluorescence polarization binding assay of labeled peptides. The settings on record: Ca2+-S100B.

Where two headings read alike, the source gives them in different places.

For orientation: Kd means the equilibrium constant for the complex coming apart. As a reminder, the IC50 is the midpoint of a concentration-inhibition curve. Lower therefore signals greater potency in that assay.

Consider “C68/84S mutant rat S100B (natural protein)”, for which the dissociation constant Kd with TAMRA-TRTK was 2.42 µM.

On rat S100B [1], `CN(C)CCCN1c2ccccc2Sc2ccc(Cl)cc21` [SC0067, chlorpromazine] returned an IC50 of 2220 ± 1360 µM and a dissociation constant (Kd) of 697 ± 428 µM.

As for `O=C(O)c1ccccc1S` [thiosalicylic acid], at rat S100B [1] (even at 2.5 mM compound), the “Inhibition of TAMRA-TRTK binding in the FPCA” value is recorded as “did not significantly inhibit”. Further, the “Chemical shift perturbations of the HSQC NMR spectra” value on Ca2+-bound S100B (1 mM compound added to 100 μM S100B, fast-exchange regime) is given as “significant chemical shift perturbations”.

Compound `C[n+]1cc2c3c(ccc2c2ccc4cc5c(cc4c21)OCO5)OCO3` [SC0844, sanguinarine] gave an IC50 on rat S100B [1] of 35.9 ± 16.4 µM. Further, the values for the Kd on rat S100B [1] and on S100B were 10.7 ± 4.9 µM and 5.8 µM, respectively. On Ca2+-bound S100B, the “NMR (confirmed to bind S100B via NMR HSQC experiments)” value is “Yes”.

With “FITC-p53_367–393: FITC-labeled peptide of human p53 residues 367–393”, in the test with rat S100B [2], the “Affinity (KD) of FITC-labeled peptide compared with unlabeled version” value is listed as “significantly higher affinity than the unlabeled version”.

`C[CH2][Hg][S]c1ccccc1C(=O)[O-].[Na+]` [SC0332, thimerosal]: the Kd on rat S100B [1] (calculated from FPCA IC50 with the equation of Nikolovska-Coleska et al) was 55.2 ± 5.1 µM. In addition, at Ca2+-bound S100B, the “NMR (confirmed to bind S100B via NMR HSQC experiments)” value was “Yes”.
